{
  "source": "PubChem BioAssay AID1963981",
  "about": "(Molecular Pharmacology Branch, DTP, NCI, 2024)",
  "tested_on": "354836-022-R-J1-PDC multicell spheroid viability",
  "assay": "Anticancer human tumor 354836-022-R-J1-PDC patient-derived head and neck squamous cell carcinoma cell line growth inhibition [PI3K]",
  "conditions": "for pIC50: curve of first compound; for viability, T/C: stronger effect = lower value",
  "procedure,_shortened": "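Tumor cells grown as multi-cell spheroids with HUVEC endothelial cells and MSC fibroblast-like stroma were treated with targeted agents combined with inavolisib, alpelisib, duvelisib or copanlisib. Doses fell in half-log steps from near clinical Cmax, else from 10 microM. Viability was measured.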",
  "note": "pIC50: −log10 of the molar value.",
  "data": [
    {"compound": "CNC(=O)c1ccc(N2C(=S)N(c3ccc(C#N)c(C(F)(F)F)c3)C(=O)C2(C)C)cc1F", "note": "+ COc1c(OCCCN2CCOCC2)ccc2c3n(c(=NC(=O)c4cnc(N)nc4)nc12)CCN3;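 note: spheroids exposed to agents for seven days before the viability read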", "values": [
      {"measurement": "pIC50", "setting": "second compound 0.00316 µM", "value": "< 5.00"},
      {"measurement": "pIC50", "setting": "second compound 0.01 µM", "value": "< 5.00"},
      {"measurement": "pIC50", "setting": "second compound 0.0316 µM", "value": "< 5.00"},
      {"measurement": "pIC50", "setting": "second compound 0.1 µM", "value": "> 7.50"},
      {"measurement": "pIC50", "setting": "second compound 0.316 µM", "value": "> 7.50"},
      {"measurement": "pIC50", "setting": "second compound 1 µM", "value": "> 7.50"},
      {"measurement": "viability, T/C", "setting": "second compound 0.00316 µM, first compound 0.0316 µM", "value": 93.6, "unit": "%"},
      {"measurement": "viability, T/C", "setting": "second compound 0.00316 µM, first compound 0.1 µM", "value": 102, "unit": "%"},
      {"measurement": "viability, T/C", "setting": "second compound 0.00316 µM, first compound 0.316 µM", "value": 101, "unit": "%"},
      {"measurement": "viability, T/C", "setting": "second compound 0.00316 µM, first compound 1 µM", "value": 107, "unit": "%"},
      {"measurement": "viability, T/C", "setting": "second compound 0.00316 µM, first compound 3.16 µM", "value": 124, "unit": "%"},
      {"measurement": "viability, T/C", "setting": "second compound 0.00316 µM, first compound 10 µM", "value": 93.2, "unit": "%"},
      {"measurement": "viability, T/C", "setting": "second compound 0.01 µM, first compound 0.0316 µM", "value": 97.3, "unit": "%"},
      {"measurement": "viability, T/C", "setting": "second compound 0.01 µM, first compound 0.1 µM", "value": 92.8, "unit": "%"},
      {"measurement": "viability, T/C", "setting": "second compound 0.01 µM, first compound 0.316 µM", "value": 92.7, "unit": "%"},
      {"measurement": "viability, T/C", "setting": "second compound 0.01 µM, first compound 1 µM", "value": 97.7, "unit": "%"},
      {"measurement": "viability, T/C", "setting": "second compound 0.01 µM, first compound 3.16 µM", "value": 102, "unit": "%"},
      {"measurement": "viability, T/C", "setting": "second compound 0.01 µM, first compound 10 µM", "value": 108, "unit": "%"},
      {"measurement": "viability, T/C", "setting": "second compound 0.0316 µM, first compound 0.0316 µM", "value": 78.1, "unit": "%"},
      {"measurement": "viability, T/C", "setting": "second compound 0.0316 µM, first compound 0.1 µM", "value": 80, "unit": "%"},
      {"measurement": "viability, T/C", "setting": "second compound 0.0316 µM, first compound 0.316 µM", "value": 81.8, "unit": "%"},
      {"measurement": "viability, T/C", "setting": "second compound 0.0316 µM, first compound 1 µM", "value": 83.7, "unit": "%"},
      {"measurement": "viability, T/C", "setting": "second compound 0.0316 µM, first compound 3.16 µM", "value": 80.4, "unit": "%"},
      {"measurement": "viability, T/C", "setting": "second compound 0.0316 µM, first compound 10 µM", "value": 77, "unit": "%"},
      {"measurement": "viability, T/C", "setting": "second compound 0.1 µM, first compound 0.0316 µM", "value": 47.8, "unit": "%"},
      {"measurement": "viability, T/C", "setting": "second compound 0.1 µM, first compound 0.1 µM", "value": 50.8, "unit": "%"},
      {"measurement": "viability, T/C", "setting": "second compound 0.1 µM, first compound 0.316 µM", "value": 57.1, "unit": "%"},
      {"measurement": "viability, T/C", "setting": "second compound 0.1 µM, first compound 1 µM", "value": 49.2, "unit": "%"},
      {"measurement": "viability, T/C", "setting": "second compound 0.1 µM, first compound 3.16 µM", "value": 58.4, "unit": "%"},
      {"measurement": "viability, T/C", "setting": "second compound 0.1 µM, first compound 10 µM", "value": 49.9, "unit": "%"},
      {"measurement": "viability, T/C", "setting": "second compound 0.316 µM, first compound 0.0316 µM", "value": 16.4, "unit": "%"},
      {"measurement": "viability, T/C", "setting": "second compound 0.316 µM, first compound 0.1 µM", "value": 18.1, "unit": "%"},
      {"measurement": "viability, T/C", "setting": "second compound 0.316 µM, first compound 0.316 µM", "value": 13.4, "unit": "%"},
      {"measurement": "viability, T/C", "setting": "second compound 0.316 µM, first compound 1 µM", "value": 10.8, "unit": "%"},
      {"measurement": "viability, T/C", "setting": "second compound 0.316 µM, first compound 3.16 µM", "value": 14.5, "unit": "%"},
      {"measurement": "viability, T/C", "setting": "second compound 0.316 µM, first compound 10 µM", "value": 12.6, "unit": "%"},
      {"measurement": "viability, T/C", "setting": "second compound 1 µM, first compound 0.0316 µM", "value": 1.3, "unit": "%"},
      {"measurement": "viability, T/C", "setting": "second compound 1 µM, first compound 0.1 µM", "value": 1.27, "unit": "%"},
      {"measurement": "viability, T/C", "setting": "second compound 1 µM, first compound 0.316 µM", "value": 1.65, "unit": "%"},
      {"measurement": "viability, T/C", "setting": "second compound 1 µM, first compound 1 µM", "value": 1.63, "unit": "%"},
      {"measurement": "viability, T/C", "setting": "second compound 1 µM, first compound 3.16 µM", "value": 1.96, "unit": "%"},
      {"measurement": "viability, T/C", "setting": "second compound 1 µM, first compound 10 µM", "value": 0.99, "unit": "%"}
    ]}
  ]
}
